From ChEMBL document CHEMBL3885861, “Open TG-GATES”

Species: Rattus norvegicus
Experiment: Open TG-GATES - Regimen: Daily Repeat
Format: toxicity, organism-based, Sprague-Dawley
Set-up: regimen Daily Repeat, gender Male, age 6 weeks
Details: in vivo, po, 0 mg/kg, route gavage, dose level Control; for APTT / Bas / Eos / Fbg / Hb / Ht / Lym / MCH / MCHC / MCV / Mono / Neu / PT / Plat / RBC / Ret / WBC: tissue Blood; for KIDNEY_L / KIDNEY_R / KIDNEY_TOTAL: tissue Kidney; for LIVER: tissue Liver; for A/G / ALP / ALT / AST / BUN / CRE / Ca / Cl / DBIL / GLC / IP / K / LDH / Na / PL / RALB / TBIL / TC / TG / TP / gamma-GTP: tissue Plasma

Compound: CN(C/C=C/C#CC(C)(C)C)Cc1cccc2ccccc12 [TERBINAFINE]
- TERMINAL_BW (72 h, time 3 day): 243.5 g
- APTT (72 h, time 3 day): 18.4 s
- Bas (72 h, time 3 day): 0.8%
- Eos (72 h, time 3 day): 1%
- Fbg (72 h, time 3 day): 227.8 mg/dL
- Hb (72 h, time 3 day): 13.5 g/dL
- Ht (72 h, time 3 day): 39.9%
- Lym (72 h, time 3 day): 76%
- MCH (72 h, time 3 day): 21.5 pg
- MCHC (72 h, time 3 day): 33.8%
- MCV (72 h, time 3 day): 63.4 fL
- Mono (72 h, time 3 day): 3%
- Neu (72 h, time 3 day): 19.2%
- PT (72 h, time 3 day): 11.8 s
- Plat (72 h, time 3 day): 117.2 x10_4/uL
- RBC (72 h, time 3 day): 629 x10_4/ul
- Ret (72 h, time 3 day): 5.9%
- WBC (72 h, time 3 day): 104.3 x10_2/uL
- KIDNEY_L (72 h, time 3 day): 1.1 g
- KIDNEY_R (72 h, time 3 day): 1.1 g
- KIDNEY_TOTAL (72 h, time 3 day): 2.2 g
- LIVER (72 h, time 3 day): 11.8 g
- A/G (72 h, time 3 day): 1.6
- ALP (72 h, time 3 day): 804.6 IU/L
- ALT (72 h, time 3 day): 34.2 IU/L
- AST (72 h, time 3 day): 66.8 IU/L
- BUN (72 h, time 3 day): 14.4 mg/dL
- CRE (72 h, time 3 day): 0.4 mg/dL
- Ca (72 h, time 3 day): 10.8 mg/dL
- Cl (72 h, time 3 day): 103.4 meq/L
- DBIL (72 h, time 3 day): 0.098 mg/dL
- GLC (72 h, time 3 day): 192.8 mg/dL
- IP (72 h, time 3 day): 7.3 mg/dL
- K (72 h, time 3 day): 4.2 meq/L
- LDH (72 h, time 3 day): 191.8 IU/L
- Na (72 h, time 3 day): 141.6 meq/L
- PL (72 h, time 3 day): 147.6 mg/dL
- RALB (72 h, time 3 day): 3.5 g/dL
- TBIL (72 h, time 3 day): 0.2 mg/dL
- TC (72 h, time 3 day): 74.6 mg/dL
- TG (72 h, time 3 day): 99.2 mg/dL
- TP (72 h, time 3 day): 5.6 g/dL
- gamma-GTP (72 h, time 3 day): 2 IU/L
- TERMINAL_BW ([…], time 7 day): 279 g
- TERMINAL_BW ([…], time 14 day): 323.8 g
- TERMINAL_BW ([…], time 28 day): 389.8 g
- APTT ([…], time 7 day): 18.7 s
- Bas ([…], time 7 day): 1%
- Eos ([…], time 7 day): 1%
- Fbg ([…], time 7 day): 236 mg/dL
- Hb ([…], time 7 day): 13.9 g/dL
- Ht ([…], time 7 day): 41%
- Lym ([…], time 7 day): 79.6%
- MCH ([…], time 7 day): 20.8 pg
- MCHC ([…], time 7 day): 33.8%
- MCV ([…], time 7 day): 61.4 fL
- Mono ([…], time 7 day): 2.8%
- Neu ([…], time 7 day): 15.6%
- PT ([…], time 7 day): 11.7 s
- Plat ([…], time 7 day): 121.9 x10_4/uL
- RBC ([…], time 7 day): 669.2 x10_4/ul
- Ret ([…], time 7 day): 5.2%
- WBC ([…], time 7 day): 118.9 x10_2/uL
- APTT ([…], time 14 day): 19.6 s
- Bas ([…], time 14 day): 1%
- Eos ([…], time 14 day): 0.8%
- Fbg ([…], time 14 day): 220.4 mg/dL
- Hb ([…], time 14 day): 14.7 g/dL
- Ht ([…], time 14 day): 43.1%
- Lym ([…], time 14 day): 84.2%
- MCH ([…], time 14 day): 20.1 pg
- MCHC ([…], time 14 day): 34.1%
- MCV ([…], time 14 day): 59.1 fL
- Mono ([…], time 14 day): 2.2%
- Neu ([…], time 14 day): 12.2%
- PT ([…], time 14 day): 11.5 s
- Plat ([…], time 14 day): 109.6 x10_4/uL
- RBC ([…], time 14 day): 729.8 x10_4/ul
- Ret ([…], time 14 day): 4%
- WBC ([…], time 14 day): 106.5 x10_2/uL
- APTT ([…], time 28 day): 20 s
- Bas ([…], time 28 day): 1%
- Eos ([…], time 28 day): 1.2%
- Fbg ([…], time 28 day): 230.6 mg/dL
- Hb ([…], time 28 day): 15.5 g/dL
- Ht ([…], time 28 day): 43.8%
- Lym ([…], time 28 day): 80%
- MCH ([…], time 28 day): 20.4 pg
- MCHC ([…], time 28 day): 35.4%
- MCV ([…], time 28 day): 57.8 fL
- Mono ([…], time 28 day): 2.4%
- Neu ([…], time 28 day): 15.8%
- PT ([…], time 28 day): 12 s
- Plat ([…], time 28 day): 116.1 x10_4/uL
- RBC ([…], time 28 day): 757.6 x10_4/ul
- Ret ([…], time 28 day): 2.5%
- WBC ([…], time 28 day): 135.2 x10_2/uL
- KIDNEY_L ([…], time 7 day): 1.2 g
- KIDNEY_R ([…], time 7 day): 1.2 g
- KIDNEY_TOTAL ([…], time 7 day): 2.5 g
- KIDNEY_L ([…], time 14 day): 1.2 g
- KIDNEY_R ([…], time 14 day): 1.2 g
- KIDNEY_TOTAL ([…], time 14 day): 2.5 g
- KIDNEY_L ([…], time 28 day): 1.4 g
- KIDNEY_R ([…], time 28 day): 1.4 g
- KIDNEY_TOTAL ([…], time 28 day): 2.8 g
- LIVER ([…], time 7 day): 13.3 g
- LIVER ([…], time 14 day): 13.3 g
- LIVER ([…], time 28 day): 15.6 g
- A/G ([…], time 7 day): 1.5
- ALP ([…], time 7 day): 874.6 IU/L
- ALT ([…], time 7 day): 33.6 IU/L
- AST ([…], time 7 day): 68.2 IU/L
- BUN ([…], time 7 day): 15.4 mg/dL
- CRE ([…], time 7 day): 0.4 mg/dL
- Ca ([…], time 7 day): 10.7 mg/dL
- Cl ([…], time 7 day): 102.8 meq/L
- DBIL ([…], time 7 day): 0.094 mg/dL
- GLC ([…], time 7 day): 201.8 mg/dL
- IP ([…], time 7 day): 7.8 mg/dL
- K ([…], time 7 day): 4.5 meq/L
- LDH ([…], time 7 day): 212.4 IU/L
- Na ([…], time 7 day): 141.8 meq/L
- PL ([…], time 7 day): 140.2 mg/dL
- RALB ([…], time 7 day): 3.5 g/dL
- TBIL ([…], time 7 day): 0.1 mg/dL
- TC ([…], time 7 day): 69.4 mg/dL
- TG ([…], time 7 day): 95.8 mg/dL
- TP ([…], time 7 day): 5.8 g/dL
- gamma-GTP ([…], time 7 day): 0.8 IU/L
- A/G ([…], time 14 day): 1.4
- ALP ([…], time 14 day): 734.4 IU/L
- ALT ([…], time 14 day): 34.8 IU/L
- AST ([…], time 14 day): 67.2 IU/L
- BUN ([…], time 14 day): 16 mg/dL
- CRE ([…], time 14 day): 0.4 mg/dL
- Ca ([…], time 14 day): 10.6 mg/dL
- Cl ([…], time 14 day): 105 meq/L
- DBIL ([…], time 14 day): 0.1 mg/dL
- GLC ([…], time 14 day): 208.4 mg/dL
- IP ([…], time 14 day): 7.2 mg/dL
- K ([…], time 14 day): 3.7 meq/L
- LDH ([…], time 14 day): 188.8 IU/L
- Na ([…], time 14 day): 142.8 meq/L
- PL ([…], time 14 day): 132.8 mg/dL
- RALB ([…], time 14 day): 3.4 g/dL
- TBIL ([…], time 14 day): 0.2 mg/dL
- TC ([…], time 14 day): 63.6 mg/dL
- TG ([…], time 14 day): 108 mg/dL
- TP ([…], time 14 day): 5.8 g/dL
- gamma-GTP ([…], time 14 day): 1 IU/L
- A/G ([…], time 28 day): 1.3
- ALP ([…], time 28 day): 719.6 IU/L
- ALT ([…], time 28 day): 33.8 IU/L
- AST ([…], time 28 day): 65.8 IU/L
- BUN ([…], time 28 day): 17.6 mg/dL
- CRE ([…], time 28 day): 0.5 mg/dL
- Ca ([…], time 28 day): 10.5 mg/dL
- Cl ([…], time 28 day): 104.4 meq/L
- DBIL ([…], time 28 day): 0.092 mg/dL
- GLC ([…], time 28 day): 226.4 mg/dL
- IP ([…], time 28 day): 6.9 mg/dL
- K ([…], time 28 day): 4 meq/L
- LDH ([…], time 28 day): 224.4 IU/L
- Na ([…], time 28 day): 141.8 meq/L
- PL ([…], time 28 day): 129.2 mg/dL
- RALB ([…], time 28 day): 3.5 g/dL
- TBIL ([…], time 28 day): 0.2 mg/dL
- TC ([…], time 28 day): 62.6 mg/dL
- TG ([…], time 28 day): 110.2 mg/dL
- TP ([…], time 28 day): 6 g/dL
- gamma-GTP ([…], time 28 day): 1.4 IU/L
